In article PMC4601567 (Steroids, 2014):

What follows are molecules tested against T1, full-length recombinant rat vitamin D receptor (VDR) (Rattus norvegicus, UniProt P13053) (assay: competitive radioligand displacement).
T1 sequence (P13053 1-423): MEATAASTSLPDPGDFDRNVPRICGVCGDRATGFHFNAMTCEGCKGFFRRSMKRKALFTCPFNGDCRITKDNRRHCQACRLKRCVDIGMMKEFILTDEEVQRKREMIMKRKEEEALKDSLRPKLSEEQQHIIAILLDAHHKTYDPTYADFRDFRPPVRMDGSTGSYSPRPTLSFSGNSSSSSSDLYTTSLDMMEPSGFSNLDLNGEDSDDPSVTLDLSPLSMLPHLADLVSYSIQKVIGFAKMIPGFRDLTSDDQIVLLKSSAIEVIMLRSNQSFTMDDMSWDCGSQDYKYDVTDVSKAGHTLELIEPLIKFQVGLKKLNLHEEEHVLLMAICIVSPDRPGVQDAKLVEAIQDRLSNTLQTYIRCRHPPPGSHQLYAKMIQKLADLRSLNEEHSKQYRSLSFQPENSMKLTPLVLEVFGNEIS
Format: binding

Row | SMILES | Ki [nM]
1 | C=C1[C@H](O)CC(=C/C=C2\CCC[C@]3(C)[C@@H]([C@H](C)/C=C/C[C@@H](C)O)CC[C@@H]23)C[C@H]1O [8a, (20R,25R)-2-Methylene-19,26-dinor-22-(E)-ene-1α,25-dihydroxyvitamin D3] | 0.09
2 | C=C1[C@H](O)CC(=C/C=C2\CCC[C@]3(C)[C@@H]([C@H](C)/C=C/C[C@H](C)O)CC[C@@H]23)C[C@H]1O [8b, (20R,25S)-2-Methylene-19,26-dinor-22-(E)-ene-1α,25-dihydroxyvitamin D3] | 0.3
3 | C=C1[C@H](O)CC(=C/C=C2\CCC[C@]3(C)[C@@H]([C@@H](C)/C=C/C[C@@H](C)O)CC[C@@H]23)C[C@H]1O [9a, (20S,25R)-2-Methylene-19,26-dinor-22-(E)-ene-1α,25-dihydroxyvitamin D3] | 0.08
4 | C[C@H](/C=C/[C@H](C)C(C)(C)O)[C@H]1CC[C@H]2/C(=C/C=C3C[C@@H](O)C[C@H](O)C3)CCC[C@]12C [compound 2, 19-Nor-1α,25-dihydroxyvitaminD2 (Zemplar)] | 0.1
5 | C=C1[C@H](O)CC(=C/C=C2\CCC[C@]3(C)[C@@H]([C@H](C)/C=C/CC(C)(C)O)CC[C@@H]23)C[C@H]1O [compound 6, 2-Methylene-19-nor-22(E)-ene-1α,25-dihydroxyvitamin D3] | 0.06
6 | C=C1[C@H](O)CC(=C/C=C2\CCC[C@]3(C)[C@@H]([C@@H](C)/C=C/C[C@H](C)O)CC[C@@H]23)C[C@H]1O [9b, (20S,25S)-2-Methylene-19,26-dinor-22-(E)-ene-1α,25-dihydroxyvitamin D3] | 0.2
